Measurements from US5622948A, “Pyrrole pyridazine and pyridazinone anti-inflammatory agents” (Syntex (U.S.A.) Inc., priority 1994, dated 1997).
“And” between values parts separate entries of the source, which are not always exact repeats. Identical values can stand only once.

Assays:
[1] = test system: carrageenan-induced paw edema; experiment: Carrageenan-induced paw edema in the rat; assay type: in vivo; details: oral
Protocol: Carrageenan-induced paw edema in the rat has been used as the primary in vivo screen for anti-inflammatory activity of most NSAIDs.
Over a series of assays, in which Compound (16), suspended in SSV, was administered orally to rats 1 hour prior to injection of carrageenan, Compound (16) inhibited carrageenan-induced paw edema (ED30 =1.1±1.0 mg/kg).

[2] = molecular target: T1, COX I (Rattus norvegicus, UniProt Q63921); experiment: TxB2 production in rat whole blood activated with A23187; assay type: cell-based; details: 15 min incubation; 30 min activation with A23187; EIA determination of TxB2; read-out: COX I IC50, inhibition of TxB2 production
T1 construct: Rat whole blood; from tissue; host or cells: rat whole blood
T1 sequence (Q63921 27-602): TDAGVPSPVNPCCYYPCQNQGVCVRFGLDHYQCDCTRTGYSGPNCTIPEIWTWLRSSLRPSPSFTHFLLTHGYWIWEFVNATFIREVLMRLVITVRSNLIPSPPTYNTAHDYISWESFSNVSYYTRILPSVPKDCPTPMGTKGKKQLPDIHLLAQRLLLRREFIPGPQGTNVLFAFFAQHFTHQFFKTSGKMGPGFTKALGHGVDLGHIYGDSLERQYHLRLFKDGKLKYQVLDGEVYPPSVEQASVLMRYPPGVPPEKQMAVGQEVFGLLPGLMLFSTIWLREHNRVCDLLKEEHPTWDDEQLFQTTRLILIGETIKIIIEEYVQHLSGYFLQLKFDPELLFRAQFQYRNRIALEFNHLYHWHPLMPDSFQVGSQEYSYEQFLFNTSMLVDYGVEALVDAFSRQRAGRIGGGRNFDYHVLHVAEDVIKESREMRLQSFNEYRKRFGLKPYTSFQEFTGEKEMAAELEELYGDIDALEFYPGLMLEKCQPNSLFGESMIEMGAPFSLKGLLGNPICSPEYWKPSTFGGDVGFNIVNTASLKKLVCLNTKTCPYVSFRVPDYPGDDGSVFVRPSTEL
Protocol: (§1) A summary of activities of Compound (16) against COX I and COX II in cell-free enzyme preparations and whole cells is presented in Table 1. The following abbreviations are used: AA is arachidonic acid, IL-1 is interleukin 1, PMA is phorbol myristate acetate, A23187 is a calcium ionophore (Sigma), BSA is bovine serum albumin and LPS is a lipopolysaccharide (Sigma).
Rat whole blood 15 min incubation with Compound (16)
(§2) EIA determination of TxB2

[3] = molecular target: T2, COX II (Homo sapiens, UniProt P35354); experiment: PGE2 production in human adherent monocytes stimulated with LPS; assay type: cell-based; details: EIA, read-out: COX II IC50, inhibition of PGE2 production
T2 sequence (P35354 18-604): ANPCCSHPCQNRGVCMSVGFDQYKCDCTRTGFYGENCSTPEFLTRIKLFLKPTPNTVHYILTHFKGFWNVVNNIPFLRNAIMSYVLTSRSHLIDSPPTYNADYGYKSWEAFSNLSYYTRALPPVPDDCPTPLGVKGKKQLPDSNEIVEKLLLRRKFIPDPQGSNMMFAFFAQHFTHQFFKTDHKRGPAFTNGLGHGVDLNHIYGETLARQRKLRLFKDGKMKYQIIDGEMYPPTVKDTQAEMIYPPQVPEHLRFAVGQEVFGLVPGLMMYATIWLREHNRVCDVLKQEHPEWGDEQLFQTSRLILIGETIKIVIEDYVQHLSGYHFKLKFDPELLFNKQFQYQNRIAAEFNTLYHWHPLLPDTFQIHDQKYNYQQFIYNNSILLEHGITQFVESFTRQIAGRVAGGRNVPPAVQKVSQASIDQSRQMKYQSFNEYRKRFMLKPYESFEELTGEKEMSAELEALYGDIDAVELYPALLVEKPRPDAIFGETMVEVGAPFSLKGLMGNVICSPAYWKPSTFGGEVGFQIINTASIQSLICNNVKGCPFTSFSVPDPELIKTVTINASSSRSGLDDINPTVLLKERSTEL
Protocol: as §1
Human adherent monocytes
(§3) 30 min incubation with Compound (16)
18 hr stimulation with LPS
a) 10 min activation, A23187 + PMA
washing, transfer to fresh media
b) 30 min activation, A23187 + PMA
c) 10 min activation, 20 μM AA
d) 30 min activation, 20 μM AA
EIA determination of PGE2

[4] = molecular target: T2, COX II; experiment: TxB2 production in human whole blood activated with lipopolysaccharide (COX II); assay type: cell-based; details: 5 hr incubation with compound and 10 μg/ml LPS; RIA determination of TxB2; read-out: COX II IC50, inhibition of TxB2 production
[5] = test system: adjuvant-induced arthritis; experiment: adjuvant-induced arthritis in the rat; assay type: in vivo
[6] = molecular target: T3, COX I (Homo sapiens, UniProt P23219); experiment: TxB2 production in human whole blood activated with ionophore (COX I); details: COX I IC50, inhibition of TxB2 production
[7] = two week range finding toxicity study in rats; assay type: in vivo, rat
Protocol: A two week range finding study in rats was carried out at daily doses of 10, 30, 100 and 300 mg/kg of Compound (16).

[8] = molecular target: T3, COX I; experiment: thromboxane B2 production in washed human platelets; assay type: cell-based; set-up: A 2 Kb fragment containing the coding region of COX I; made in house; host or cells: Sf9 insect cells, baculovirus (cDNA from Oxford Biomedical Research); details: EIA, read-out: COX I IC50, inhibition of thromboxane B2 production
Protocol: as §1, §3
b) 10 min activation, 20 μM AA
as §2

[9] = 10, 30, 100 and 300 mg/kg daily, two weeks

T3 sequence (P23219 24-599): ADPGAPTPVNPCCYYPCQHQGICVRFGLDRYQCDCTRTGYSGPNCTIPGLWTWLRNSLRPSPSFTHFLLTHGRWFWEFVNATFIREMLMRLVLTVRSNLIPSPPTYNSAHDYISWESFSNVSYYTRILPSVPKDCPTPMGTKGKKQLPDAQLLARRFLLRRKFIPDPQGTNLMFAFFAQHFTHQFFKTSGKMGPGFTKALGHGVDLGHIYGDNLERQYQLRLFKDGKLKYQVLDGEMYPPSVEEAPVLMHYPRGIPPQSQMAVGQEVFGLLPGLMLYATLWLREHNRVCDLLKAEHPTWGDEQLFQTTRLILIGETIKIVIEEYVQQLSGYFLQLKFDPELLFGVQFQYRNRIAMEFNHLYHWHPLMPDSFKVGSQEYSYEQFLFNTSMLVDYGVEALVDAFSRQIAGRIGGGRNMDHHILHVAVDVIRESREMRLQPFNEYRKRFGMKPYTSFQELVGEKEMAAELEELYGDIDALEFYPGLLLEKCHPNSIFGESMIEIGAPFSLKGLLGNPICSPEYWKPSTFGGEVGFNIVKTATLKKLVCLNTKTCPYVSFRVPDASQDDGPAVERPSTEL

In the case of `Cc1cc(Cc2ccc(=O)[nH]n2)n(C)c1C(=O)c1ccc(Cl)cc1` [Compound 16, 6-[1,4-dimethyl-5-(4chloro-benzoyl)-1H-pyrrol-2-ylmethyl]-2H-pyridazin-3-one], the ED30 ([1]; Rattus norvegicus, in SSV, 1 hour prior to carrageenan, series of assays, read-out: ED30, inhibition of carrageenan-induced paw edema) is reported as 1.1 ± 1 mg/kg, the “inhibition of paw edema at the appropriate dose” value ([1]; maximum amount achievable with NSAIDs) is reported as ~ 60% and the IC50 [2] is reported as 6 µM and 5 µM and 4 µM. It also gave an IC50 ([3]; 30 min incubation; a) 10 min activation, A23187 + PMA) of 0.2 µM, an IC50 ([3]; 30 min incubation; b) 30 min activation, A23187 + PMA) of less than 0.1 µM and an IC50 ([3]; 30 min incubation; c) 10 min activation, 20 μM AA) of 2.8 µM. For the same compound, the IC50 ([3]; 30 min incubation; d) 30 min activation, 20 μM AA) was 0.54 µM, the IC50 [4] was 4.7 µM and 4.56 µM and the ED40 ([5]; Rattus norvegicus, po, 408 h, based on the three assays) was 3.2 ± 2.6 mg/kg. For the same compound, the “inhibition of adjuvant-induced arthritis” value ([5]; first test, 2 mg/kg/day, oral bid 17 days) was 31%, the “inhibition of adjuvant-induced arthritis” value ([5]; first test, 5 mg/kg/day, oral bid 17 days) was 66% and the “inhibition of adjuvant-induced arthritis” value ([5]; second test, 2 mg/kg/day) was 43%. For the same compound, the “inhibition of adjuvant-induced arthritis” value ([5]; second test, 5 mg/kg/day) was 48%, the “inhibition of adjuvant-induced arthritis” value ([5]; second test, 10 mg/kg/day) was 52% and the “maximum inhibition of adjuvant-induced arthritis” value ([5]; third test, 100 mg/kg) was 80%. The IC50 ([6]; 15 min incubation with compound, 30 min with A23187 (ionophore), RIA determination of TxB2) was 5.6 µM, the IC50 ([6]; 30 min incubation, 15 min activation, A23187, EIA determination of TxB2) was 3 µM and the clinical chemistry [7, 9] was “No clinical chemistry abnormalities were detected”. The clinical signs [7, 9] was “no adverse clinical signs were noted”, the gross necropsy findings [7, 9] was “no drug-related gross necropsy findings” and the histopathological findings [7, 9] was “no histopathological findings”. The “lesions in the stomach or intestines” value [7, 9] was “no lesions were noted in the stomach or intestines”, the “intestinal lesions in toxicology range-finding study” value ([7]; up to 300 mg/kg/day for 14 days) was “no intestinal lesions were observed” and the IC50 ([8]; 30 min incubation; a) 10 min activation, A23187 (calcium ionophore)) was 2.3 µM. The IC50 ([8]; 30 min incubation; b) 10 min activation, 20 μM AA) was greater than 100 µM.
